# Reference: publication PMC10975061, “Cellular Uptake and Transport Mechanism Investigations of PEGylated Niosomes for Improving the Oral Delivery of Thymopentin” (Pharmaceutics, 2024)
# Where two headings read alike, the source gives them in different places. Peptide text beside a SMILES is read from it.
# Experiments:
# [1] = test system: Caco-2 and HT-29 co-cultured cells; assay: MTT cytotoxicity (cell viability) assay
# Protocol: MTT assay was used for the cytotoxicity study. […] The DMEM was discarded, and the Caco-2 and HT-29 co-cultured cells were washed with PBS before introducing TP5 test samples. […] Subsequently, 20 μL of MTT (5 mg/mL) was added, and the cells were incubated for an additional 4 h. Dimethyl sulfoxide (DMSO) was introduced to dissolve the formazan crystals, and the absorbance at 570 nm was measured using a microplate UV-Vis spectrophotometer (SpectraMax® Plus, Molecular Devices, San Jose, CA, USA). The percentage of cell viability was calculated in comparison to the untreated control group.
# For each test sample group and at every time point over the course of three days, cell viability was computed. The outcomes were consolidated using the SoftMax Pro v5 software system through Equation (1). (1) V=A/A0×100% where V is the cell viability, A is sample absorbance, and A0 is control absorbance.
# The concentration of these selected inhibitors and enhancers was screened by cytotoxicity using Caco-2 and HT-29 co-cultured cells by MTT assay. Then, these inhibitors and enhancers with safe concentrations were added to the AP side with a 0.5 mL 1 mg/mL solution of TP5 and TP5-PEG-niosomes, respectively. All inhibitors were dissolved in dimethyl sulfoxide and diluted with HBSS. The transport characteristics of TP5 and TP5-PEG-niosomes through Caco-2 and HT-29 co-cultured cell monolayers were expressed as the cumulative transported drug and transport rate. The transport rate (Flux) was denoted in μg/min/cm^2 and computed using the formula Flux = (dM/dt)/A, where dM/dt represents the cumulative amount of TP5 in the BL side per unit time (µg/min), and A is the surface area of the insert membrane (1.1 cm^2). […] The TEER values of the monolayers were assessed at 1 h intervals throughout the experimental duration, guaranteeing the integrity of the monolayers.
# [2] = test system: Caco-2 and HT-29 co-cultured cells; assay: Quantitative cellular uptake of TP5 (RP-HPLC and BCA protein assay), with inhibitors and low temperature; format: in vitro ADME, human
# Protocol: Briefly, 5 mL of Caco-2 and HT-29 co-cultured cells’ suspension at a density of 10^5 cells/cm^2 was seeded onto 60 mm plastic dishes (Corning, New York, NY, USA), fed complete DMEM every 3 days and incubated at 37 °C in an atmosphere of 5% CO2 and 95% relative humidity. […] Then, 25 µL of the cell lysates from each well were subjected to a BCA protein assay (Thermo Scientific, Waltham, MA, USA) to determine the amount of cell protein. The entire protein concentration in each group was calculated based on the linearity equation obtained from the BSA standard curve. Then, cell lysates were centrifuged for 15 min at 14,000 rpm, and the supernatants were analyzed for the amount of uptake TP5 using the RP-HPLC method mentioned earlier. The uptake of TP5 by Caco-2 and HT-29 co-cultured cells was calculated and expressed as the amount of drug (ng) uptake per µg cell protein. One of the mechanisms for cellular uptake depends on concentration. […] The treated Caco-2 and HT-29 co-cultured cells were then scraped off into a 2 mL microcentrifuge tube containing 1.0 mL extraction solution (10% Triton X-100) and sonicated to accelerate cell lysis. Then, 25 µL of the cell lysates from each well were subjected to a BCA protein assay (Thermo Scientific, Waltham, MA, USA) to determine the amount of cell protein as mentioned above. Then, cell lysates were centrifuged for 15 min at 14,000 rpm, and the supernatants were analyzed for the amount of uptake TP5 using the RP-HPLC method mentioned above. The uptake of TP5 by Caco-2 and HT-29 co-cultured cells was calculated and expressed as the amount of drug (ng) uptake per µg cell protein. […] The incubation temperature of 4 °C was also tested. After the removal of the drug solution and formulation (4 h incubation), the dishes were immediately rinsed twice with ice-cold HBSS solution (5 mL). The treated Caco-2 and HT-29 co-cultured cells were then scraped off into a 2 mL microcentrifuge tube containing 1.0 mL extraction solution (10% Triton X-100) and sonicated to accelerate cell lysis. Furthermore, 25 µL of the cell lysates from each well were subjected to a BCA protein assay (Thermo Scientific, Waltham, MA, USA) to determine the amount of cell protein mentioned above. Then, cell lysates were centrifuged for 15 min at 14,000 rpm, and the supernatants were analyzed for the amount of cellular uptake TP5 using the RP-HPLC method mentioned above. The uptake of TP5 by Caco-2 and HT-29 co-cultured cells was calculated and expressed as the amount of drug (ng) uptake per µg cell protein.
# [3] = test system: Caco-2 and HT-29 co-cultured cell monolayers; assay: Transepithelial transport across Transwell monolayers (AP to BL), with inhibitors and enhancers; format: in vitro ADME, human
# Protocol: (§1) Caco-2 and HT-29 co-cultured cells at a density of 10^5 cells/cm^2 were seeded on 12-well Insert Transwell® inserts (0.4 µm pore diameter, 1.1 cm^2 area, Corning, New York, NY, USA). Caco-2 and HT-29 co-cultured cells were incubated at 37 °C in an atmosphere of 5% CO2 and 95% relative humidity in complete DMEM. The medium was replaced every 3 days with 0.5 mL medium on the apical (AP) side and 1.5 mL on the basolateral (BL) side, as shown in Figure 2. The integrity of the co-cultured cell monolayer was assessed by monitoring transepithelial electrical resistance (TEER). TEER measurements were conducted using a Millicell-ERS Volt-Ohm meter connected to a pair of chopstick electrodes (Millipore Corp, Boston, MA, USA). […] TEER measurements were taken at 3-day intervals until the TEER values surpassed 350 Ω·cm^2 (around 24 days post-seeding in this study). The TEER calculation utilized the formula TEER = (Rm − Rb) × A, where Rm, Rb, and A represent the measured TEER values, TEER values of the blank transwell, and the membrane surface area of the transwell (1.13 cm^2), respectively. Caco-2 monolayers with TEER values exceeding 350 Ω·cm^2 were deemed to have acceptable integrity and were considered suitable for the transport study.
# (§2) Before the transport experiments, Caco-2 and HT-29 co-cultured cell monolayers underwent equilibration with HBSS for 30 min and were subsequently aspirated. All transport studies were carried out at 37 °C. A 0.5 mL solution of TP5 and TP5-PEG-niosomes (0.1 mg TP5 per mL in HBSS) was introduced on the AP side, while the BL side of the inserts contained 1.5 mL of HBSS, as depicted in Figure 2. At 0, 60, 120, 240, and 360 min of incubation, 200 µL was withdrawn from the BL-receiving chamber and immediately replaced with an equal volume of pre-warmed HBSS (37 °C). The concentration of TP5 in the transport medium was analyzed using RP-HPLC.
# (§3) TP5 transport mechanisms were investigated in the absence or presence of variable inhibitors or enhancers. […] […].
# [4] = as above; format: in vitro ADME, human; conditions: apical to basolateral, 6 h
# Protocol: as §1, §2, §3
smiles,measurement,setting,value
CN(C)C(=O)CCSC(SCCC(=O)O)c1cccc(/C=C/c2ccc3ccc(Cl)cc3n2)c1 (stereo not shown) [MK-571],safe but still effective concentration for treatment,"[1]; MTT, 72 h at 37 °C",0.1 mM
C[C@H](CCC(=O)NCCS(=O)(=O)O)[C@H]1CC[C@H]2[C@@H]3[C@H](O)C[C@@H]4C[C@H](O)CC[C@]4(C)[C@H]3C[C@H](O)[C@]12C [Sodium taurocholate],safe but still effective concentration for treatment,"[1]; MTT, 72 h at 37 °C",20 mM
"CC(C)[C@H](NC(=O)[C@H](CC(=O)O)NC(=O)[C@H](CCCCN)NC(=O)[C@@H](N)CCCN=C(N)N)C(=O)N[C@@H](Cc1ccc(O)cc1)C(=O)O [TP5, thymopentin] (H-RKDVY-OH)",cytotoxicity (MTT cell viability),"[1]; TP5 solutions 0.005 to 10 mg/mL, 24, 48 and 72 h",not toxic
same,cellular uptake amount with adsorptive-mediated endocytosis inhibitor,"[2]; 1 mM protamine sulphate, 4 h, p < 0.005",significantly reduced
same,cellular uptake amount at low temperature,"[2]; 4 °C, 4 h",significantly decreased
same,time of highest amount of cellular uptake drug,"[2]; HPLC and BCA assay, time course 0.5-5 h",2 h
same,cellular uptake value,"[2]; pure drug solution, in 2 h, maintained afterwards",3.56 ± 1.13 ng/µg
same,TP5 cumulative amount with EDTA,"[3]; EDTA group, after the first 60 min",increase sharply
same,"cumulative amount of TP5 transported, comparison between groups","[3]; no treatment, AP to BL",no significant difference
same,TP5 cumulative amount with sodium taurocholate,"[3]; sodium taurocholate group, after the first 60 min",increase sharply
same,Papp A→B,"[4]; EDTA (10 mM), read-out: Papp values",0.142 ± 0.0089 ×10⁻⁶ cm/s
same,Papp A→B,"[4]; chlorpromazine (10 μg/mL), read-out: Papp values",0.0573 ± 0.0063 ×10⁻⁶ cm/s
same,Papp A→B,"[4]; lowest to highest over no treatment, inhibitors and enhancers, read-out: range of Papp values over all treatments",0.043 to 0.134 ×10⁻⁶ cm/s
same,Papp A→B,"[4]; no treatment, read-out: Papp values",0.0539 ± 0.0046 ×10⁻⁶ cm/s
same,Papp A→B,"[4]; silymarin (20 µM), read-out: Papp values",0.043 ± 0.0055 ×10⁻⁶ cm/s
same,Papp A→B,"[4]; sodium azide (20 mM), read-out: Papp values",0.059 ± 0.0052 ×10⁻⁶ cm/s
same,Papp A→B,"[4]; sodium taurocholate (20 mM), read-out: Papp values",0.134 ± 0.0052 ×10⁻⁶ cm/s
CN(C)CCCN1c2ccccc2Sc2ccc(Cl)cc21 [chlorpromazine],safe but still effective concentration for treatment,"[1]; human, 72 h",10 µg/mL
[N-]=[N+]=[N-].[Na+] [sodium azide],safe but still effective concentration for treatment,"[1]; MTT, 72 h at 37 °C",20 mM
